What was measured:
Type in all cases: in vivo
[1] = tested on: Indica rice; test: Post-emergence test experiment, crop selectivity; conditions: post-emergence spray, 600 g a.i./ha plus water 450 kg/ha, 3 weeks in greenhouse
Experimental: (§1) The above described growth inhibition rate is fresh weight inhibition rate.
(§2) Post-emergence test experiment: Monocotyledonous and dicotyledonous weed seeds and main crop seeds (i. e. wheat, corn, rice, soybean, cotton, oilseed, millet and sorghum.) were put into a plastic pot loaded with soil. Then covered with 0.5-2 cm soil, the seeds were allowed to grow in good greenhouse environment. The test plants were treated at 2-3 leaf stage 2 weeks after sowing. The test compounds of the invention were dissolved with acetone respectively, then added with tween-80, and using 1.5 liters per hectare of an emulsible concentrate of methyl oleate as a synergist, and diluted by certain amount of water to certain concentration. The solution was sprayed to the plants with a sprayer. Then the plants were cultured for 3 weeks in the greenhouse, and the experiment result of weed controlling effect was listed in tables 3-4.

[2] = tested on: Japonica rice; test: Post-emergence test experiment, crop selectivity; conditions: post-emergence spray, 600 g a.i./ha plus water 450 kg/ha, 3 weeks in greenhouse
Experimental: as §1, §2

[3] = tested on: Cyperus iria; test: Post-emergence test experiment, weed control; conditions: post-emergence spray, 600 g a.i./ha plus water 450 kg/ha, 3 weeks in greenhouse
Experimental: as §1, §2

[4] = tested on: Monocotyledonous and dicotyledonous weed seeds and main crop seeds; test: Post-emergence test experiment (Table 3, 1000 g a.i./ha); conditions: 3 weeks in greenhouse, fresh weight inhibition
In short: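 Weeds and crops (wheat, corn, rice, soybean, cotton, oilseed, millet, sorghum) grown in soil in the greenhouse and sprayed post-emergence at 2–3 leaf stage, 2 weeks after sowing. Compound in acetone with tween-80 plus methyl oleate emulsible concentrate (1.5 L/ha) as synergist, diluted in water. Fresh weight inhibition scored after 3 weeks.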

[5] = tested on: Rice; test: Transplanted rice safety evaluation; conditions: 1000 g a.i./ha, transplanted 3 leaf stage japonica rice, treated 5 days after transplantation, 21 days after treatment
Experimental: as §1
In addition, the rice field soil that loaded into the 1/1,000,000 ha pot was leveled to keep water storage at 3-4 cm depth. The 3 leaf stage rice (japonica rice) was transplanted at 3 cm of transplanting depth the next day. The compound of the present invention was treated by the same way after 5 days of transplantation.
The fertility condition of Scirpus juncoides, Sagittaria trifolia and Monochoria vaginalis 14 days after the treatment of the compound of the invention and the fertility condition of rice 21 days after the treatment of the compound of the invention respectively with the naked eye. Evaluate the weed control effect with 0-5 activity standard level.

[6] = tested on: Monochoria Vaginalis; test: Weed control effect evaluation in rice field; conditions: 1000 g a.i./ha, paddy water application at 0.5 leaf stage, 14 days after treatment; weeds resistant to pyrazosulfuron-ethyl and penoxsulam
Text: as §1
(§3) Transplanted rice safety evaluation and weed control effect evaluation in rice field: Rice field soil was loaded into a 1/1,000,000 ha pot. The seeds of Scirpus juncoides, Sagittaria trifolia and Monochoria vaginalis were sowed and gently covered with soil, then left to stand still in greenhouse in the state of 0.5-1 cm of water storage. The tuber of Sagittaria trifolia was planted in the next day or 2 days later. It was kept at 3-4 cm of water storage thereafter. The weeds were treated by dripping the WP or SC water diluents prepared according to the common preparation method of the compounds of the present invention with pipette homogeneously to achieve specified effective amount when Scirpus juncoides, and Monochoria vaginalis reached 0.5 leaf stage and Sagittaria trifolia reached the time point of primary leaf stage.
(§4) The fertility condition of Scirpus juncoides, Sagittaria trifolia and Monochoria vaginalis 14 days after the treatment of the compound of the invention and the fertility condition of rice 21 days after the treatment of the compound of the invention respectively with the naked eye. Evaluate the weed control effect with 0-5 activity standard level. Many compounds show excellent activity and selectivity.

[7] = tested on: Sagittaria trifolia; test: Weed control effect evaluation in rice field; conditions: 1000 g a.i./ha, paddy water application at primary leaf stage, 14 days after treatment; weeds resistant to pyrazosulfuron-ethyl and penoxsulam
Text: as §1, §3, §4

[8] = tested on: Scirpus juncoides; test: Weed control effect evaluation in rice field; conditions: 1000 g a.i./ha, paddy water application at 0.5 leaf stage, 14 days after treatment; weeds resistant to pyrazosulfuron-ethyl and penoxsulam
Text: as §1, §3, §4

## CC(=NOC(=O)C(C)Oc1nc(F)c(Cl)c(N)c1Cl)c1ccc(Cl)cc1 (centres unmarked) [Compound 70]
[1]
  Activity level (fresh weight growth inhibition rate), Indica rice: 0 (Level 0: the growth inhibition rate is less than 5%)
[2]
  Activity level (fresh weight growth inhibition rate), Japonica rice: 0 (Level 0: the growth inhibition rate is less than 5%)
[3]
  Activity level (fresh weight growth inhibition rate), Cyperus iria: 5 (Level 5: the growth inhibition rate is greater than 85%)
[4]
  Activity level (growth inhibition rate) Digitaria sanguinalis: 5 (Level 5: the growth inhibition rate is greater than 85%)
  Activity level (growth inhibition rate) Echinochloa crusgalli: 5 (Level 5: the growth inhibition rate is greater than 85%)
  Activity level (growth inhibition rate) Galium spurium: 5 (Level 5: the growth inhibition rate is greater than 85%)
  Activity level (growth inhibition rate) Leptochloa chinensis: 5 (Level 5: the growth inhibition rate is greater than 85%)
  Activity level (growth inhibition rate) Monochoria Vaginalis: 5 (Level 5: the growth inhibition rate is greater than 85%)
  Activity level (growth inhibition rate) Murdannia triquetra: 5 (Level 5: the growth inhibition rate is greater than 85%)
  Activity level (growth inhibition rate) Setaria viridis: 5 (Level 5: the growth inhibition rate is greater than 85%)
[5]
  Safety, 0-5 activity standard level, Rice: 0 (Level 0: the growth inhibition rate is less than 5%)
[6]
  Weed control effect, 0-5 activity standard level, Monochoria Vaginalis: 5 (Level 5: the growth inhibition rate is greater than 85%)
[7]
  Weed control effect, 0-5 activity standard level, Sagittaria trifolia: 4 (Level 4: the growth inhibition rate is equal to or greater than 60% and less than 85%)
[8]
  Weed control effect, 0-5 activity standard level, Scirpus juncoides: 4 (Level 4: the growth inhibition rate is equal to or greater than 60% and less than 85%)

## COc1ccccc1C(F)=NOC(=O)C(C)Oc1nc(F)c(Cl)c(N)c1Cl (centres unmarked) [Compound 84]
[1]
  Activity level (fresh weight growth inhibition rate), Indica rice: 0 (Level 0: the growth inhibition rate is less than 5%)
[2]
  Activity level (fresh weight growth inhibition rate), Japonica rice: 0 (Level 0: the growth inhibition rate is less than 5%)
[3]
  Activity level (fresh weight growth inhibition rate), Cyperus iria: 5 (Level 5: the growth inhibition rate is greater than 85%)
[4]
  Activity level (growth inhibition rate) Digitaria sanguinalis: 5 (Level 5: the growth inhibition rate is greater than 85%)
  Activity level (growth inhibition rate) Echinochloa crusgalli: 5 (Level 5: the growth inhibition rate is greater than 85%)
  Activity level (growth inhibition rate) Galium spurium: 5 (Level 5: the growth inhibition rate is greater than 85%)
  Activity level (growth inhibition rate) Leptochloa chinensis: 5 (Level 5: the growth inhibition rate is greater than 85%)
  Activity level (growth inhibition rate) Monochoria Vaginalis: 5 (Level 5: the growth inhibition rate is greater than 85%)
  Activity level (growth inhibition rate) Murdannia triquetra: 5 (Level 5: the growth inhibition rate is greater than 85%)
  Activity level (growth inhibition rate) Setaria viridis: 5 (Level 5: the growth inhibition rate is greater than 85%)
[5]
  Safety, 0-5 activity standard level, Rice: 0 (Level 0: the growth inhibition rate is less than 5%)
[6]
  Weed control effect, 0-5 activity standard level, Monochoria Vaginalis: 5 (Level 5: the growth inhibition rate is greater than 85%)
[7]
  Weed control effect, 0-5 activity standard level, Sagittaria trifolia: 4 (Level 4: the growth inhibition rate is equal to or greater than 60% and less than 85%)
[8]
  Weed control effect, 0-5 activity standard level, Scirpus juncoides: 4 (Level 4: the growth inhibition rate is equal to or greater than 60% and less than 85%)

## CCOC(=NOC(=O)C(C)Oc1nc(F)c(Cl)c(N)c1Cl)c1ccc(NC(C)=O)cc1 (centres unmarked) [Compound 88]
[1]
  Activity level (fresh weight growth inhibition rate), Indica rice: 0 (Level 0: the growth inhibition rate is less than 5%)
[2]
  Activity level (fresh weight growth inhibition rate), Japonica rice: 0 (Level 0: the growth inhibition rate is less than 5%)
[3]
  Activity level (fresh weight growth inhibition rate), Cyperus iria: 5 (Level 5: the growth inhibition rate is greater than 85%)
[4]
  Activity level (growth inhibition rate) Digitaria sanguinalis: 5 (Level 5: the growth inhibition rate is greater than 85%)
  Activity level (growth inhibition rate) Echinochloa crusgalli: 5 (Level 5: the growth inhibition rate is greater than 85%)
  Activity level (growth inhibition rate) Galium spurium: 5 (Level 5: the growth inhibition rate is greater than 85%)
  Activity level (growth inhibition rate) Leptochloa chinensis: 5 (Level 5: the growth inhibition rate is greater than 85%)
  Activity level (growth inhibition rate) Monochoria Vaginalis: 5 (Level 5: the growth inhibition rate is greater than 85%)
  Activity level (growth inhibition rate) Murdannia triquetra: 5 (Level 5: the growth inhibition rate is greater than 85%)
  Activity level (growth inhibition rate) Setaria viridis: 5 (Level 5: the growth inhibition rate is greater than 85%)
[5]
  Safety, 0-5 activity standard level, Rice: 0 (Level 0: the growth inhibition rate is less than 5%)
[6]
  Weed control effect, 0-5 activity standard level, Monochoria Vaginalis: 5 (Level 5: the growth inhibition rate is greater than 85%)
[7]
  Weed control effect, 0-5 activity standard level, Sagittaria trifolia: 4 (Level 4: the growth inhibition rate is equal to or greater than 60% and less than 85%)
[8]
  Weed control effect, 0-5 activity standard level, Scirpus juncoides: 4 (Level 4: the growth inhibition rate is equal to or greater than 60% and less than 85%)

## CC(Oc1nc(F)c(Cl)c(N)c1Cl)C(=O)ON=C(C(=O)NCc1ccco1)c1ccccc1 (centres unmarked) [Compound 104]
[1]
  Activity level (fresh weight growth inhibition rate), Indica rice: 0 (Level 0: the growth inhibition rate is less than 5%)
[2]
  Activity level (fresh weight growth inhibition rate), Japonica rice: 0 (Level 0: the growth inhibition rate is less than 5%)
[3]
  Activity level (fresh weight growth inhibition rate), Cyperus iria: 5 (Level 5: the growth inhibition rate is greater than 85%)
[4]
  Activity level (growth inhibition rate) Digitaria sanguinalis: 5 (Level 5: the growth inhibition rate is greater than 85%)
  Activity level (growth inhibition rate) Echinochloa crusgalli: 5 (Level 5: the growth inhibition rate is greater than 85%)
  Activity level (growth inhibition rate) Galium spurium: 5 (Level 5: the growth inhibition rate is greater than 85%)
  Activity level (growth inhibition rate) Leptochloa chinensis: 5 (Level 5: the growth inhibition rate is greater than 85%)
  Activity level (growth inhibition rate) Monochoria Vaginalis: 5 (Level 5: the growth inhibition rate is greater than 85%)
  Activity level (growth inhibition rate) Murdannia triquetra: 5 (Level 5: the growth inhibition rate is greater than 85%)
  Activity level (growth inhibition rate) Setaria viridis: 5 (Level 5: the growth inhibition rate is greater than 85%)

## CC(Oc1nc(F)c(Cl)c(N)c1Cl)C(=O)ON=C1CCCC1 (centres unmarked) [Compound 117]
[1]
  Activity level (fresh weight growth inhibition rate), Indica rice: 0 (Level 0: the growth inhibition rate is less than 5%)
[2]
  Activity level (fresh weight growth inhibition rate), Japonica rice: 0 (Level 0: the growth inhibition rate is less than 5%)
[3]
  Activity level (fresh weight growth inhibition rate), Cyperus iria: 5 (Level 5: the growth inhibition rate is greater than 85%)
[4]
  Activity level (growth inhibition rate) Digitaria sanguinalis: 5 (Level 5: the growth inhibition rate is greater than 85%)
  Activity level (growth inhibition rate) Echinochloa crusgalli: 5 (Level 5: the growth inhibition rate is greater than 85%)
  Activity level (growth inhibition rate) Galium spurium: 5 (Level 5: the growth inhibition rate is greater than 85%)
  Activity level (growth inhibition rate) Leptochloa chinensis: 5 (Level 5: the growth inhibition rate is greater than 85%)
  Activity level (growth inhibition rate) Monochoria Vaginalis: 5 (Level 5: the growth inhibition rate is greater than 85%)
  Activity level (growth inhibition rate) Murdannia triquetra: 5 (Level 5: the growth inhibition rate is greater than 85%)
  Activity level (growth inhibition rate) Setaria viridis: 5 (Level 5: the growth inhibition rate is greater than 85%)

— patent US12643859B2, “Pyridyl oxycarboxylic acid oxime derivative and preparation method therefor, weeding composition and application thereof” (Qingdao Kingagroot Chemical Compound Co., Ltd., priority 2018, dated 2026)
